Assay results: US20250034170A1, “SMALL MOLECULE MODULATORS OF GLUCOCEREBROSIDASE ACTIVITY AND USES THEREOF” (Vanqua Bio, Inc., priority 2021, published 2025)

The molecules below were run against T1, GCase (Homo sapiens, UniProt P04062) (assay: activation of GCase in a live cell PFB assay in HELA cells). Conditions: EC50 given as range classes.
T1 construct: endogenous in cells; host or cells: HeLa cells
T1 sequence (P04062 40-536): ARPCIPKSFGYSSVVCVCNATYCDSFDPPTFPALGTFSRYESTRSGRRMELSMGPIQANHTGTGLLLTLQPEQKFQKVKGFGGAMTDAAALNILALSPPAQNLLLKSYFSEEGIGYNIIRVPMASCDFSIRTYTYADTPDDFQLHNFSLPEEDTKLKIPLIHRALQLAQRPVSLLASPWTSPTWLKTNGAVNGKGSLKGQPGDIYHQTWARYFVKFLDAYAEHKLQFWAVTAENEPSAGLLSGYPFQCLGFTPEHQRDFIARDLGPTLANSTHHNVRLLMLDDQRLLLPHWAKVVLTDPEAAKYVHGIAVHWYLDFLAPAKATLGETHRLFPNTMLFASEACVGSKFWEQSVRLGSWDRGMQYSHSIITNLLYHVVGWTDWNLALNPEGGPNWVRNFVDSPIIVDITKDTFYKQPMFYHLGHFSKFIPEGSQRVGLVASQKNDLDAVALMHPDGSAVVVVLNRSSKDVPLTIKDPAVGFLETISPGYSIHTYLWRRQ
Type: cell-based
Procedure: Exemplary compounds were evaluated for activation of GCase in a live cell PFB assay in HELA cells (essentially as described in Ysselstein et al., “LRRK2 kinase activity regulates lysosomal glucocerebrosidase in neurons derived from Parkinson's disease patients” Nature Communications (2019) 10:5570). […] EC50 ranges: A: <10 μM; B: >10-50 μM; C: >50-100 μM; D: >100 μM.

Structure (SMILES) | EC50 [µM]
O=C(c1ccc(Cl)cc1)N1CC2(CCN(c3cnc4cnn(CC(F)F)c4n3)C2)C1 [Cmpd 378] | > 100
Cc1nc(N2CC3(CCN(c4cnc5cnn(CC(F)F)c5n4)C3)C2)ncc1Cl [Cmpd 402] | > 100
FC(F)Cn1ncc2ncc(N3CCC4(CN(c5cccc(OC(F)(F)F)n5)C4)C3)nc21 [Cmpd 405] | 10 to 50
FC(F)Cn1ncc2ncc(N3CCC4(CN(c5cccc(OC(F)F)n5)C4)C3)nc21 [Cmpd 406] | 10 to 50
Fc1cc(Cl)cnc1N1CC2(CCN(c3cnc4cnn(CC(F)F)c4n3)C2)C1 [Cmpd 407] | 10 to 50
Cc1cc(Cl)cnc1N1CC2(CCN(c3cnc4cnn(CC(F)F)c4n3)C2)C1 [Cmpd 408] | 10 to 50
FC(F)Cn1ncc2ncc(N3CCC4(CN(c5cccc(OCC(F)(F)F)n5)C4)C3)nc21 [Cmpd 409] | 10 to 50
COc1ncc(N2CC3(CCN(c4cnc5cnn(CC(F)F)c5n4)C3)C2)cn1 [Cmpd 410] | 50 to 100
FC(F)Cn1ncc2ncc(N3CCC4(CN(c5ccnc(OC(F)(F)F)c5)C4)C3)nc21 [Cmpd 411] | 10 to 50
FC(F)Cn1ncc2ncc(N3CCC4(CN(c5ccnc(OCC(F)(F)F)c5)C4)C3)nc21 [Cmpd 412] | 10 to 50
O=S(=O)(c1ccc(C(F)(F)F)nc1)N1CC2(CCN(c3cnc4cnn(CC(F)F)c4n3)C2)C1 [Cmpd 414] | 10 to 50
O=S(=O)(CCC(F)(F)F)N1CC2(CCN(c3cnc4cnn(CC(F)F)c4n3)C2)C1 [Cmpd 415] | 10 to 50
Cc1ccc(S(=O)(=O)N2CC3(CCN(c4cnc5cnn(CC(F)F)c5n4)C3)C2)cn1 [Cmpd 416] | 10 to 50
Cc1ccc(C(=O)N2CC3(CCN(c4cnc5cnn(CC(F)F)c5n4)C3)C2)cc1 [Cmpd 419] | 10 to 50
O=C(c1cc(Cl)cc(Cl)n1)N1CC2(CCN(c3cnc4cnn(CC(F)F)c4n3)C2)C1 [Cmpd 420] | 10 to 50
Cc1ncc(CN2CC3(CCN(c4cnc5cnn(CC(F)F)c5n4)CC3)CC2=O)s1 [Cmpd 423] | 10 to 50
FC(F)(F)c1cc(N2CC3(CCN(c4cncc(-c5nncs5)n4)C3)C2)ccn1 [Cmpd 425] | 50 to 100
FC(F)(F)Cn1ncc2ncc(N3CCC4(CN(c5cnc(C(F)(F)F)nc5)C4)C3)nc21 [Cmpd 426] | 10 to 50
FC(F)(F)c1ncc(N2CC3(CCN(c4cnc5cnn(C6COC6)c5n4)C3)C2)cn1 [Cmpd 427] | 10 to 50
Cc1nn(CC(F)F)c2nc(N3CCC4(CN(c5cnc(C(F)(F)F)nc5)C4)C3)cnc12 [Cmpd 429] | > 100
Cc1nn(CC(F)F)c2nc(N3CCC4(CN(c5cnc(C(F)(F)F)nc5)C4)C3)ncc12 [Cmpd 433] | 10 to 50

More lines, now with the values ahead:

EC50 [µM] | Structure (SMILES)
10 to 50 | COc1ccc(C(=O)N2CC3(CCN(c4cnc5cnn(CC(F)F)c5n4)C3)C2)cc1 [Cmpd 379]
< 10 | COc1cccc(C(=O)N2CC3(CCN(c4cnc5cnn(CC(F)F)c5n4)C3)C2)c1 [Cmpd 380]
< 10 | Cc1cccc(C(=O)N2CC3(CCN(c4cnc5cnn(CC(F)F)c5n4)C3)C2)c1 [Cmpd 381]
10 to 50 | O=C(c1cccc(C(F)(F)F)c1)N1CC2(CCN(c3cnc4cnn(CC(F)F)c4n3)C2)C1 [Cmpd 382]
< 10 | O=C(c1ccccc1Cl)N1CC2(CCN(c3cnc4cnn(CC(F)F)c4n3)C2)C1 [Cmpd 383]
< 10 | Cc1ccccc1C(=O)N1CC2(CCN(c3cnc4cnn(CC(F)F)c4n3)C2)C1 [Cmpd 384]
10 to 50 | Cc1ccc(S(=O)(=O)N2CC3(CCN(c4cnc5cnn(CC(F)F)c5n4)C3)C2)cc1 [Cmpd 385]
10 to 50 | O=S(=O)(c1ccc(Cl)cc1)N1CC2(CCN(c3cnc4cnn(CC(F)F)c4n3)C2)C1 [Cmpd 386]
10 to 50 | O=C(c1ccc(OC(F)F)cc1)N1CC2(CCN(c3cnc4cnn(CC(F)F)c4n3)C2)C1 [Cmpd 387]
10 to 50 | O=C(c1cccc(OC(F)(F)F)c1)N1CC2(CCN(c3cnc4cnn(CC(F)F)c4n3)C2)C1 [Cmpd 388]
< 10 | O=C(c1ccccc1OC(F)F)N1CC2(CCN(c3cnc4cnn(CC(F)F)c4n3)C2)C1 [Cmpd 389]
< 10 | O=C(c1ccccc1OC(F)(F)F)N1CC2(CCN(c3cnc4cnn(CC(F)F)c4n3)C2)C1 [Cmpd 390]
< 10 | COc1ccccc1C(=O)N1CC2(CCN(c3cnc4cnn(CC(F)F)c4n3)C2)C1 [Cmpd 391]
< 10 | O=C(c1ccccc1C(F)(F)F)N1CC2(CCN(c3cnc4cnn(CC(F)F)c4n3)C2)C1 [Cmpd 392]
10 to 50 | O=S(=O)(c1ccccc1Cl)N1CC2(CCN(c3cnc4cnn(CC(F)F)c4n3)C2)C1 [Cmpd 393]
10 to 50 | Cc1ccccc1S(=O)(=O)N1CC2(CCN(c3cnc4cnn(CC(F)F)c4n3)C2)C1 [Cmpd 394]
< 10 | O=S(=O)(c1ccccc1F)N1CC2(CCN(c3cnc4cnn(CC(F)F)c4n3)C2)C1 [Cmpd 395]

EC50 [µM] | Structure (SMILES)
10 to 50 | O=S(=O)(c1ccccc1C(F)(F)F)N1CC2(CCN(c3cnc4cnn(CC(F)F)c4n3)C2)C1 [Cmpd 396]
10 to 50 | O=C1CC2(CCN(c3cnc4cnn(CC(F)F)c4n3)CC2)CN1Cc1ccc(F)cn1 [Cmpd 397]
10 to 50 | Cc1cc(CN2CC3(CCN(c4cnc5cnn(CC(F)F)c5n4)CC3)CC2=O)no1 [Cmpd 398]
10 to 50 | Cc1csc(CN2CC3(CCN(c4cnc5cnn(CC(F)F)c5n4)CC3)CC2=O)n1 [Cmpd 399]
10 to 50 | O=C1CC2(CCN(c3cnc4cnn(CC(F)F)c4n3)CC2)CN1Cc1ccc(Cl)cn1 [Cmpd 400]
10 to 50 | FC(F)Cn1ncc2ncc(N3CCC4(CN(c5cncc(Cl)c5)C4)C3)nc21 [Cmpd 401]
10 to 50 | FC(F)Cn1ncc2ncc(N3CCC4(CN(c5ccc(Cl)cn5)C4)C3)nc21 [Cmpd 403]
< 10 | Cc1cc(N2CC3(CCN(c4cnc5cnn(CC(F)F)c5n4)C3)C2)nc(C(F)(F)F)n1 [Cmpd 404]
< 10 | O=S(=O)(c1cncc(C(F)(F)F)c1)N1CC2(CCN(c3cnc4cnn(CC(F)F)c4n3)C2)C1 [Cmpd 413]
< 10 | Cc1cccc(S(=O)(=O)N2CC3(CCN(c4cnc5cnn(CC(F)F)c5n4)C3)C2)c1 [Cmpd 417]
< 10 | O=S(=O)(c1cccc(Cl)c1)N1CC2(CCN(c3cnc4cnn(CC(F)F)c4n3)C2)C1 [Cmpd 418]
< 10 | O=C1CC2(CCN(c3cnc4cnn(CC(F)F)c4n3)CC2)CN1Cc1ccc(Cl)cc1F [Cmpd 421]
< 10 | Cc1nc(N2CC3(CCN(c4cnc5cnn(CC(F)F)c5n4)C3)C2)cc(C(F)(F)F)n1 [Cmpd 422]
< 10 | FC(F)(F)Cn1ncc2cnc(N3CCC4(CN(c5ccnc(C(F)(F)F)c5)C4)C3)nc21 [Cmpd 424]
< 10 | Cc1nn(C2COC2)c2nc(N3CCC4(CN(c5cnc(C(F)(F)F)nc5)C4)C3)cnc12 [Cmpd 428]
< 10 | FC(F)(F)c1ncc(N2CC3(CCN(c4cncc(-c5nncs5)n4)C3)C2)cn1 [Cmpd 430]
< 10 | FC(F)(F)Cn1ncc2cnc(N3CCC4(CN(c5cnc(C(F)(F)F)nc5)C4)C3)nc21 [Cmpd 432]

Same assay, conditions: activation of GCase, EC50 ranges

EC50 [µM] | Structure (SMILES)
10 to 50 | FC(F)(F)c1cc(N2CCC3(C2)CN(c2ncc4cnn(C5COC5)c4n2)C3)ccn1 [Cmpd 376]
> 100 | O=C(c1ccc(C(F)(F)F)cc1)N1CC2(CCN(c3cnc4cnn(CC(F)F)c4n3)C2)C1 [Cmpd 377]
10 to 50 | FC(F)(F)c1ncc(N2CC3(CCN(c4ncc5cnn(C6COC6)c5n4)C3)C2)cn1 [Cmpd 434]
< 10 | O=C(c1cccc(OC(F)F)c1)N1CC2(CCN(c3cnc4cnn(CC(F)F)c4n3)C2)C1 [Cmpd 435]
10 to 50 | FC(F)Cn1ncc2ncc(N3CCC4(CN(c5ccc(OCC(F)(F)F)nc5)C4)C3)nc21 [Cmpd 436]
50 to 100 | Cc1cc(C(F)(F)F)cnc1N1CC2(CCN(c3cnc4cnn(CC(F)F)c4n3)C2)C1 [Cmpd 437]
10 to 50 | FC(F)Cn1ncc2ncc(N3CCC4(C3)CN(c3ncc(Cl)cn3)C4)nc21 [Cmpd 438]
10 to 50 | FC(F)Cn1ncc2ncc(N3CCC4(CN(c5cnc(OCC(F)(F)F)nc5)C4)C3)nc21 [Cmpd 439]
50 to 100 | FC(F)Cn1ncc2ncc(N3CCC4(CN(c5ccc(C(F)(F)F)nn5)C4)C3)nc21 [Cmpd 440]
< 10 | O=C1CC2(CCN(c3cnc4cnn(CC(F)F)c4n3)CC2)CN1Cc1ccc(OC(F)(F)F)cc1 [Cmpd 441]
< 10 | O=C1CC2(CCN(c3cnc4cnn(CC(F)F)c4n3)CC2)CN1Cc1ccc(OC(F)F)cc1 [Cmpd 442]
< 10 | O=C1CC2(CCN(c3cnc4cnn(CC(F)F)c4n3)CC2)CN1Cc1ccc(C(F)(F)F)cc1 [Cmpd 443]
< 10 | O=C1CC2(CCN(c3cnc4cnn(CC(F)F)c4n3)CC2)CN1Cc1ccc(F)cc1 [Cmpd 444]
10 to 50 | O=C1CC2(CCN(c3cnc4cnn(CC(F)F)c4n3)CC2)CN1Cc1ccc(Cl)cc1 [Cmpd 445]
< 10 | O=C1CC2(CCN(c3cnc4cnn(CC(F)F)c4n3)CC2)CN1Cc1ccc(C(F)(F)F)cc1F [Cmpd 446]
< 10 | O=C1CC2(CCN(c3cnc4cnn(CC(F)F)c4n3)CC2)CN1Cc1cc(F)ccc1F [Cmpd 447]
< 10 | O=C1CC2(CCN(c3cnc4cnn(CC(F)F)c4n3)CC2)CN1Cc1ccc(Cl)c(F)c1 [Cmpd 448]
< 10 | O=C1CC2(CCN(c3cnc4cnn(CC(F)F)c4n3)CC2)CN1Cc1ccc(F)c(Cl)c1 [Cmpd 449]
